Measured values from the supplement of paper PMC8960247.
Where a name gives a salt, the structure may show the parent alone. ± gives the standard error.

Columns and labels:
[1] = tested on: 621-102 (TSC2-deficient); assay: relative viability vs DMSO; higher = less cytotoxic; conditions: serum: 10% FBS, 72 h
[2] = tested on: 621-103 (TSC2-rescued); assay: as above; conditions: serum: 10% FBS, 72 h
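Note: immortalized renal angiomyolipoma cells stably carrying empty vector or TSC2, dosed in 384-well plates in DMEM, viability normalized to vehicle-treated wells within each plate.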

Row | SMILES | relative viability ([1]; 0.0001 µM) [%] | relative viability ([1]; 0.001 µM) [%] | relative viability ([1]; 0.01 µM) [%] | relative viability ([1]; 0.1 µM) [%] | relative viability ([1]; 1 µM) [%] | relative viability ([1]; 10 µM) [%] | relative viability ([2]; 0.0001 µM) [%] | relative viability ([2]; 0.001 µM) [%] | relative viability ([2]; 0.01 µM) [%] | relative viability ([2]; 0.1 µM) [%] | relative viability ([2]; 1 µM) [%] | relative viability ([2]; 10 µM) [%]
1 | NCCCC(O)(P(=O)(O)O)P(=O)(O)O [Alendronate Sodium] | 99.4 ± 1.2 | 103 ± 1.3 | 103 ± 2.7 | 99.1 ± 5.1 | 99 ± 3.1 | 104.6 ± 0.43 | 98.7 ± 3.1 | 102 ± 1.5 | 101 ± 4.5 | 105.54 ± 0.079 | 104 ± 3.5 | 105 ± 2.9
2 | COCCCOc1cc(C[C@@H](C[C@H](N)[C@@H](O)C[C@H](C(=O)NCC(C)(C)C(N)=O)C(C)C)C(C)C)ccc1OC [Aliskiren hemifumarate] | 110 ± 2.6 | 111 ± 2.7 | 106 ± 5.1 | 112 ± 1.9 | 98.8 ± 5.5 | 95.9 ± 5.5 | 105 ± 2.6 | 100 ± 1.1 | 104 ± 6.3 | 94.7 ± 4.8 | 96.59 ± 0.53 | 98.8 ± 2.7
3 | O=C1c2ccccc2C(=O)c2c1ccc(O)c2O [Alizarin] | 108 ± 2.3 | 110 ± 0.84 | 108 ± 4.6 | 105 ± 1.5 | 107 ± 2.9 | 83 ± 3 | 101 ± 1.6 | 102 ± 5 | 101.4 ± 0.27 | 99.9 ± 3.2 | 95.2 ± 4.5 | 97.3 ± 1.1
4 | Oc1ncnc2[nH]ncc12 [Allopurinol] | 96.2 ± 0.32 | 105 ± 2.6 | 102 ± 1.7 | 91.9 ± 0.92 | 99.48 ± 0.58 | 101.9 ± 0.86 | 103 ± 3.1 | 98.4 ± 1.6 | 101 ± 3.5 | 98.7 ± 3.6 | 98.2 ± 1.6 | 100 ± 1.9
5 | NC12CC3CC(CC(C3)C1)C2 [Amantadine HCl (Symmetrel)] | 97.2 ± 2.8 | 96.9 ± 4.5 | 94.9 ± 3.8 | 98.5 ± 3.3 | 100.9 ± 0.5 | 98.09 ± 0.17 | 92.2 ± 5.4 | 98.7 ± 2.9 | 106 ± 2.3 | 111 ± 3.6 | 108 ± 1.8 | 96.89 ± 0.4
6 | CC(NC(C)(C)C)C(=O)c1cccc(Cl)c1 (stereo not given) [Amfebutamone] | 110 ± 2.9 | 103 ± 1.4 | 104.4 ± 0.4 | 112 ± 2.4 | 103 ± 2.4 | 103 ± 3.5 | 103.2 ± 0.3 | 105 ± 2.2 | 98.8 ± 1.9 | 101 ± 2.8 | 102 ± 2.8 | 102 ± 1.2
7 | CCN1CCCC1CNC(=O)c1cc(S(=O)(=O)CC)c(N)cc1OC (stereo not given) [Amisulpride] | 111 ± 3.8 | 100 ± 1.3 | 104.3 ± 0.84 | 105 ± 3 | 107.5 ± 0.4 | 110 ± 1.6 | 104 ± 1.8 | 105 ± 2.5 | 110.7 ± 0.99 | 103.5 ± 0.35 | 113 ± 4.8 | 114 ± 3.6
8 | CCOC(=O)C1=C(COCCN)NC(C)=C(C(=O)OC)C1c1ccccc1Cl (stereo not given) [Amlodipine besylate] | 65.2 ± 8.7 | 72.3 ± 1.8 | 76.1 ± 6.9 | 71.3 ± 8.8 | 65.1 ± 9.1 | 53.6 ± 2.7 | 96.2 ± 2.2 | 91.1 ± 4.7 | 99.4 ± 2.6 | 102 ± 9 | 94.5 ± 5.2 | 57.2 ± 5
9 | CC(C)(C#N)c1cc(Cn2cncn2)cc(C(C)(C)C#N)c1 [Anastrozole (Arimidex)] | 125 ± 1.8 | 109 ± 6.2 | 108 ± 3.5 | 106 ± 2.2 | 120 ± 1.5 | 119 ± 4.3 | 101 ± 1.4 | 104 ± 3.2 | 101 ± 1.7 | 103.6 ± 0.71 | 99.407 ± 0.097 | 99.4 ± 2.6
10 | N#CC1(c2ccc(NC(=O)c3cccnc3NCc3ccncc3)cc2)CCCC1 [Apatinib] | 101 ± 3.1 | 109.9 ± 0.77 | 111.8 ± 0.42 | 111 ± 4.4 | 102 ± 4.9 | 101.34 ± 0.059 | 111.1 ± 1.1 | 103 ± 3.9 | 110 ± 2.4 | 107 ± 2.4 | 107 ± 7.4 | 103.7 ± 0.61
